# Like-named read-outs stand apart in the source and are kept apart here.
# Assays:
# [1] = system: ES-2 (ovarian cancer cell line); assay: In vitro cell proliferation inhibition test with isobologram analysis (Test Example 3), ES-2; format: cell-based; details: DNA damage repair inhibitor combined with Lipo, 3 days culture
# Protocol: (§1) A Cell Counting Kit-8 (Dojindo Molecular Technologies. Inc.) was used for a living cell detection method, and the absorbance at 460 nm after 4 hours of reagent addition was measured with a microplate reader to obtain the IC50 value. [table] As various DNA damage repair inhibitors to be used in combination with the liposome composition, the following DNA damage repair inhibitors were used; ceralasertib ([…] Biotechnology, Inc.) as an ATR inhibitor, prexasertib ([…] Biotechnology, Inc.) as a CHK1/2 inhibitor, […] Biotechnology, Inc.) as a DNA-PK inhibitor, […] Biotechnology, Inc.) as an ATM inhibitor, ZN-c3 ([…] Biotechnology, Inc.) as a WEE1 inhibitor, and olaparib ([…] Biotechnology, Inc.) as a PARP inhibitor. […] [table] […] First, the IC50 value of Lipo alone and the IC50 value of various DNA damage repair inhibitors alone were determined. Next, various DNA damage repair inhibitors were used in combination at each of the set concentration points of Lipo, and the IC50 value of the DNA damage repair inhibitors was determined. A value obtained by […] was denoted as “Lipo FIC”, and a value obtained by dividing this value by the IC50 value of the various DNA damage repair inhibitors was denoted as “various DNA damage repair inhibitor FIC”, and then these two values were recorded as one set of values. […] In addition, Lipo was used in combination at each of the concentration points of the various DNA damage repair inhibitors which were set in the same manner, and the IC50 value of the Lipo was determined. A value obtained by dividing this value by the IC50 value of Lipo alone was denoted as “Lipo FIC”, and a value obtained by dividing this value by the IC50 value of the various DNA damage repair inhibitors was denoted as “various DNA damage repair inhibitor FIC”, and then these two values were recorded as one set of values. […] As shown in Table 8 and Table 9, an isobologram was obtained by plotting each set of these values on the graph of various DNA damage repair inhibitors FIC v.s. Lipo FIC. […] A case of being plotted to the right indicates an “antagonistic effect”, which is regarded as an inappropriate effect of combined use. FIG. 5 to FIG. 21 show the results.
# [2] = system: Capan-1 (pancreatic cancer cell line); assay: In vitro cell proliferation inhibition test with isobologram analysis (Test Example 3), Capan-1; format: cell-based, human; details: for effect of combined use with Lipo in isobologram analysis / DNA damage repair inhibitor (Ceralasertib) FIC: Capan-1; for effect of combined use with Lipo in isobologram analysis: DNA damage repair inhibitor combined with Lipo, 6 days culture; for IC50: Homo sapiens, CAPAN-1, Capan-1, read-out: IC50 value (nmol/L) of DNA damage repair inhibitor (Ceralasertib) at each of concentration points of Lipo
# Protocol: as §1
# [3] = system: DMS114 (lung cancer cell line); assay: In vitro cell proliferation inhibition test with isobologram analysis (Test Example 3), DMS 114; format: cell-based; details: DNA damage repair inhibitor combined with Lipo, 5 days culture
# Protocol: as §1
# [4] = system: Capan-1 cells (human pancreatic cancer cell line) subcutaneous tumor; assay: Drug efficacy in pancreatic cancer cell line (Capan-1) model, combined use of Lipo and olaparib (Test Example 1); format: in vivo, mouse Balb/cAJcl-nu/nu; details: same dosing as Table 1; relative to no-drug group; day 28
smiles,measurement,setting,value
C[C@@H]1COCCN1c1cc(C2([S@](C)(=N)=O)CC2)nc(-c2cc[nH]c3nccc2-3)n1 [Ceralasertib],effect of combined use with Lipo in isobologram analysis,[1],synergistic effect
same,effect of combined use with Lipo in isobologram analysis,[2],synergistic effect
same,DNA damage repair inhibitor (Ceralasertib) FIC,"[2]; Table 8, Lipo 0.0 nmol/L",1.0
same,DNA damage repair inhibitor (Ceralasertib) FIC,"[2]; Table 8, Lipo 0.14 nmol/L",0.7
same,DNA damage repair inhibitor (Ceralasertib) FIC,"[2]; Table 8, Lipo 0.41 nmol/L",0.9
same,DNA damage repair inhibitor (Ceralasertib) FIC,"[2]; Table 8, Lipo 1.23 nmol/L",0.9
same,DNA damage repair inhibitor (Ceralasertib) FIC,"[2]; Table 8, Lipo 3.7 nmol/L",0.2
same,DNA damage repair inhibitor (Ceralasertib) FIC,"[2]; Table 8, Lipo 11.1 nmol/L",0.02
same,DNA damage repair inhibitor (Ceralasertib) FIC,"[2]; Table 9, ceralasertib 0.0 nmol/L",0.0
same,DNA damage repair inhibitor (Ceralasertib) FIC,"[2]; Table 9, ceralasertib 4.57 nmol/L with Lipo",0.01
same,DNA damage repair inhibitor (Ceralasertib) FIC,"[2]; Table 9, ceralasertib 13.7 nmol/L with Lipo",0.02
same,DNA damage repair inhibitor (Ceralasertib) FIC,"[2]; Table 9, ceralasertib 41.2 nmol/L with Lipo",0.05
same,DNA damage repair inhibitor (Ceralasertib) FIC,"[2]; Table 9, ceralasertib 123 nmol/L with Lipo",0.1
same,DNA damage repair inhibitor (Ceralasertib) FIC,"[2]; Table 9, ceralasertib 370 nmol/L with Lipo",0.4
same,IC50,[2]; Lipo 0.0 nmol/L (ceralasertib alone),893 nmol/L
same,IC50,[2]; combined with Lipo 0.14 nmol/L,634 nmol/L
same,IC50,[2]; combined with Lipo 0.41 nmol/L,809 nmol/L
same,IC50,[2]; combined with Lipo 1.23 nmol/L,798 nmol/L
same,IC50,[2]; combined with Lipo 3.7 nmol/L,181 nmol/L
same,IC50,[2]; combined with Lipo 11.1 nmol/L,14.9 nmol/L
same,effect of combined use with Lipo in isobologram analysis,[3],synergistic effect
COc1ccc([C@@H](O)c2cc(-c3ncnc4cc(N5CCOCC5)ccc34)c(F)cc2Cl)nn1 [Example M3814],effect of combined use with Lipo in isobologram analysis,[1],additive effect
same,effect of combined use with Lipo in isobologram analysis,[2],synergistic effect
same,effect of combined use with Lipo in isobologram analysis,[3],synergistic effect
COc1cc2ncc3c(c2cc1-c1cn(C)nc1C)n(-c1c(F)cncc1OC)c(=O)n3C [Example M4076],effect of combined use with Lipo in isobologram analysis,[1],synergistic effect
same,effect of combined use with Lipo in isobologram analysis,[2],additive effect
same,effect of combined use with Lipo in isobologram analysis,[3],synergistic effect
O=C(c1cc(Cc2n[nH]c(=O)c3ccccc23)ccc1F)N1CCN(C(=O)C2CC2)CC1 [Olaparib],"Drug efficacy (tumor diameter) 28 days after administration, proportion to Comparative Example 1",[4],(80%)
same,effect of combined use with Lipo in isobologram analysis,[1],synergistic effect
same,Safety (body weight: g) 28 days after administration,"Capan-1 tumor-bearing female nude mice, Lipo 0.5 mg/kg or topotecan 5 mg/kg i.v. weekly x 4, olaparib 50 mg/kg i.p. daily x 6 days/week x 4 weeks, day 28",103 g
same,"Safety (body weight) 28 days after administration, proportion to Comparative Example 1","same dosing as Table 1, relative to no-drug group, day 28",(97%)
same,effect of combined use with Lipo in isobologram analysis,[2],synergistic effect
same,effect of combined use with Lipo in isobologram analysis,[3],synergistic effect
CC[C@@]1(O)C(=O)OCc2c1cc1n(c2=O)Cc2cc3c(CN(C)C)c(O)ccc3nc2-1 [Topotecan],"Drug efficacy (tumor diameter) 28 days after administration, proportion to Comparative Example 1",[4],(80%)
same,"Safety (body weight) 28 days after administration, proportion to Comparative Example 1","mouse, in vivo",(96%)
C=CCn1c(=O)c2cnc(Nc3ccc(N4CCN(C)CC4)cc3)nc2n1-c1ccc2c(n1)[C@@](O)(CC)CC2 [ZN-c3],effect of combined use with Lipo in isobologram analysis,[1],synergistic effect
same,effect of combined use with Lipo in isobologram analysis,[2],additive effect
same,effect of combined use with Lipo in isobologram analysis,[3],additive effect
COc1cccc(OCCCN)c1-c1cc(Nc2cnc(C#N)cn2)n[nH]1 [prexasertib],effect of combined use with Lipo in isobologram analysis,[1],synergistic effect
same,effect of combined use with Lipo in isobologram analysis,[3],synergistic effect

# Source: patent US20250268827A1, “COMBINED MEDICINAL DRUG INCLUDING LIPOSOME COMPOSITION ENCOMPASSING TOPOTECAN OR SALT THEREOF AND DNA DAMAGE REPAIR INHIBITOR” (FUJIFILM Corporation, priority 2022, published 2025)
